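Following 48 hours of exposure in 96-well plates, responses at five concentrations were used to interpolate endpoints linearly. The concentration for 50% growth inhibition is given as GI50. TGI: concentration producing complete growth inhibition.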
Assays:
Experiment in all cases: NCI anticancer screen, dose series, 48 h
A549 NSCLC = test system: A549 NSCLC
IGROV1 ovarian = test system: IGROV1 ovarian
LOX IMVI melanoma = test system: LOX IMVI melanoma
MOLT-4 leukemia = test system: MOLT-4 leukemia
NCI-H23 lung = test system: NCI-H23 lung
NCI-H522 lung = test system: NCI-H522 lung
SK-MEL-2 melanoma = test system: SK-MEL-2 melanoma
SK-OV-3 ovarian = test system: SK-OV-3 ovarian
U251 CNS = test system: U251 CNS
UO-31 renal = test system: UO-31 renal

SMILES	GI50 (A549 NSCLC) [µM]	TGI (A549 NSCLC) [µM]	GI50 (IGROV1 ovarian) [µM]	TGI (IGROV1 ovarian) [µM]	GI50 (LOX IMVI melanoma) [µM]	TGI (LOX IMVI melanoma) [µM]	GI50 (MOLT-4 leukemia) [µM]	TGI (MOLT-4 leukemia) [µM]	GI50 (NCI-H23 lung) [µM]	TGI (NCI-H23 lung) [µM]	GI50 (NCI-H522 lung) [µM]	TGI (NCI-H522 lung) [µM]	GI50 (SK-MEL-2 melanoma) [µM]	TGI (SK-MEL-2 melanoma) [µM]	GI50 (SK-OV-3 ovarian) [µM]	TGI (SK-OV-3 ovarian) [µM]	GI50 (U251 CNS) [µM]	TGI (U251 CNS) [µM]	GI50 (UO-31 renal) [µM]	TGI (UO-31 renal) [µM]
CN(C)S(=O)(=O)c1ccc(NC(=O)COC(=O)c2ccc(S(=O)(=O)N3CCCCC3)cc2)cc1	> 100	> 100	> 100	> 100	> 100	> 100	> 100	> 100	> 100	> 100	> 100	> 100	> 100	> 100	> 100	> 100	> 100	> 100	> 100	> 100
CCCCCCCCCc1cc(=O)c2ccc(OCc3ccccc3)cc2o1		> 100		> 100		> 100				> 100		> 100		> 100		> 100		> 100		> 100
COCCN1C2=CCCCC2=Nc2c1nc(N)[nH]c2=O		> 100		> 100		> 100		> 100		> 100		> 100				> 100		> 100		> 100
Cc1ccncc1.[O]=[Ge].[O]=[Ge].[O]=[Ge].[O]=[Ge].[O]=[Ge].[O]=[Ge][OH].[O]=[Ge][OH]	> 100	> 100	> 100	> 100	> 100	> 100	> 100	> 100	> 100	> 100			> 100	> 100					> 100	> 100
O=C(O)c1ccc([Se][Se]c2ccc(C(=O)O)cc2)cc1		> 100		71.1						37.6		52		63.2				49.6		77.7
O=Cc1cn(C(=O)c2ccccc2)c2ccccc12		> 100		> 100				> 100		> 100				> 100		> 100		> 100		> 100
C=CCC1([C@H](C)[C@@H](OC(C)=O)c2cc(OC)c(OC)c(OC)c2)C[C@@H](OC)CCC1=O (stereo partly drawn)		77.5		33.5				94.3		22.8		25.4		38.9		> 100		26.7		
Nc1ccn(Cc2ccc(C34CC5CC(CC(C5)C3)C4)c(O)c2)c(=O)n1					> 100	> 100	54.4	> 100	54.5	> 100	40.9	> 100	76.1	> 100	> 100	> 100	23.6	> 100	> 100	> 100
CN(C)/C=C/c1nnc([N+](=O)[O-])s1		66.4				17.4				36.8		3.27		39.3		55.2		51.8		29.7
CC1(C)SC2C(NC(=O)C(N)c3ccccc3)C(=O)N2C1C(=O)O (stereo not drawn)		> 100		> 100		> 100		> 100		> 100		> 100		> 100				> 100		> 100
